From patent US20250034170A1, “SMALL MOLECULE MODULATORS OF GLUCOCEREBROSIDASE ACTIVITY AND USES THEREOF” (Vanqua Bio, Inc., priority 2021, published 2025)

Target: T1, GCase (Homo sapiens, UniProt P04062)
T1 construct: endogenous in cells; host or cells: HeLa cells
T1 sequence (P04062 40-536): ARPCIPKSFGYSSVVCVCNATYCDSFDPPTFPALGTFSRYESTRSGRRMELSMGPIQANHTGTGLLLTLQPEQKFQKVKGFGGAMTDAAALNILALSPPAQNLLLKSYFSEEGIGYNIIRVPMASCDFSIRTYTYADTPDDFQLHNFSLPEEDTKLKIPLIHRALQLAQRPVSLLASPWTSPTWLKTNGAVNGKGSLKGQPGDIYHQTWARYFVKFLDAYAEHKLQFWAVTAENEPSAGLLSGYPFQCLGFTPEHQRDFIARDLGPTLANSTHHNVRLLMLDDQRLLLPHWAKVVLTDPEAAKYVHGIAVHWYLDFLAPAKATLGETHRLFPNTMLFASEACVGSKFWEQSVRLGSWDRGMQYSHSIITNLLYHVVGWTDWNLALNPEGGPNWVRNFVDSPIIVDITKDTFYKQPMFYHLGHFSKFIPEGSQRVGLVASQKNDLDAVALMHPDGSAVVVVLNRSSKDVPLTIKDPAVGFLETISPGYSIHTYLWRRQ
Assay: activation of GCase in a live cell PFB assay in HELA cells
Assay type: cell-based
Conditions: activation of GCase, EC50 ranges
Protocol: Exemplary compounds were evaluated for activation of GCase in a live cell PFB assay in HELA cells (essentially as described in Ysselstein et al., “LRRK2 kinase activity regulates lysosomal glucocerebrosidase in neurons derived from Parkinson's disease patients” Nature Communications (2019) 10:5570). […] EC50 ranges: A: <10 μM; B: >10-50 μM; C: >50-100 μM; D: >100 μM.

| SMILES | EC50 [µM] |
| --- | --- |
| O=C1CC2(CCN(c3cnc4cnn(CC(F)F)c4n3)C2)CN1c1ccc(C(F)(F)F)cn1 (stereo not shown) [Cmpd 497] | 50 to 100 |
| O=C1CC2(CCN(c3cnc4cnn(CC(F)F)c4n3)C2)CN1c1ccc(C(F)(F)F)nc1 (stereo not shown) [Cmpd 498] | 10 to 50 |
| Cc1nc(N2CC3(CCN(c4cnc5cnn(CC(F)(F)F)c5n4)C3)C2)cc(C(F)(F)F)n1 [Cmpd 499] | < 10 |
| Cc1nc(N2CC3(CCN(c4ncc5cnn(CC(F)(F)F)c5n4)C3)C2)cc(C(F)(F)F)n1 [Cmpd 500] | > 100 |
| Cc1nc(N2CC3(CCN(c4ncc5cnn(CC(F)F)c5n4)C3)C2)cc(C(F)(F)F)n1 [Cmpd 501] | > 100 |
| Cc1nc(N2CC3(CCN(c4ncc5c(C)nn(CC(F)F)c5n4)C3)C2)cc(C(F)(F)F)n1 [Cmpd 502] | < 10 |
| Cc1nc(N2CC3(CCN(c4cnc5c(C)nn(CC(F)F)c5n4)C3)C2)cc(C(F)(F)F)n1 [Cmpd 503] | < 10 |
| Cc1nc(N2CC3(CCN(c4ncc5c(C)nn(C6COC6)c5n4)C3)C2)cc(C(F)(F)F)n1 [Cmpd 504] | 10 to 50 |
| Cc1nc(N2CC3(CCN(c4cncc(-c5nncs5)n4)C3)C2)cc(C(F)(F)F)n1 [Cmpd 505] | > 100 |
| O=C1CC2(CCN(c3ccnc(C(F)(F)F)c3)C2)CN1c1cnc2cnn(CC(F)F)c2n1 (stereo not shown) [Cmpd 506] | > 100 |
| O=C1CC2(CCN(c3ccc(C(F)(F)F)nc3)C2)CN1c1cnc2cnn(CC(F)F)c2n1 (stereo not shown) [Cmpd 507] | < 10 |
| O=C1CC2(CCN(c3ccc(C(F)(F)F)cn3)C2)CN1c1cnc2cnn(CC(F)F)c2n1 (stereo not shown) [Cmpd 508] | 10 to 50 |
| Cc1nc(N2CCC3(CC(=O)N(c4cnc5cnn(CC(F)F)c5n4)C3)C2)cc(C(F)(F)F)n1 (stereo not shown) [Cmpd 509] | 10 to 50 |
| Cc1nc(N2CC3(CCN(c4cnc5cnn(CC(F)F)c5n4)C3)CC2=O)cc(C(F)(F)F)n1 (stereo not shown) [Cmpd 510] | > 100 |
| Cc1nc(N2CCC3(CCN(c4cnc5cnn(CC(F)F)c5n4)CC3)C2)cc(C(F)(F)F)n1 [Cmpd 511] | < 10 |
| Cc1nc(N2CCC3(CCN(c4cnc5cnn(CC(F)F)c5n4)CC3)C2=O)cc(C(F)(F)F)n1 [Cmpd 512] | < 10 |
| Cc1nc(N2CC3(CCN(c4cnc5cnn(CC(F)F)c5n4)CC3)CC2=O)cc(C(F)(F)F)n1 [Cmpd 513] | 10 to 50 |
| Cc1nn(CC(F)F)c2nc(N3CCC4(CCN(c5ccnc(C(F)(F)F)c5)C4=O)C3)cnc12 (stereo not shown) [Cmpd 514] | < 10 |
| Cc1nn(CC(F)F)c2nc(N3CCC4(CCN(c5ccnc(C(F)(F)F)c5)C4=O)C3)ncc12 (stereo not shown) [Cmpd 515] | < 10 |
| Cc1nc(N2CCC3(CCN(c4cnc5cnn(CC(F)F)c5n4)C3)C2=O)cc(C(F)(F)F)n1 (stereo not shown) [Cmpd 516] | < 10 |
| O=C1N(c2ccnc(C(F)(F)F)c2)CCC12CCN(c1cnc3cnn(CC(F)F)c3n1)C2 (stereo not shown) [Cmpd 517] | < 10 |
| O=C1N(c2cnc3cnn(CC(F)F)c3n2)CCC12CCN(c1ccnc(C(F)(F)F)c1)C2 (stereo not shown) [Cmpd 518] | > 100 |
| O=C1N(c2cnc3cnn(CC(F)F)c3n2)CCC12CCN(c1ccc(C(F)(F)F)nc1)C2 (stereo not shown) [Cmpd 519] | 10 to 50 |
| O=C1N(c2cnc3cnn(CC(F)F)c3n2)CCC12CCN(c1ccc(C(F)(F)F)cn1)C2 (stereo not shown) [Cmpd 520] | 10 to 50 |

| SMILES | EC50 [µM] |
| --- | --- |
| Cc1nc(N2CCC3(CCN(c4cnc5cnn(CC(F)F)c5n4)C3)C2)cc(C(F)(F)F)n1 (stereo not shown) [Cmpd 521] | < 10 |
| Cc1nc(N2CC3(CCN(c4cnc5cnn(CC(F)F)c5n4)CC3)C2)cc(C(F)(F)F)n1 [Cmpd 522] | < 10 |
| Cc1nc(N2CCC3(CCN(c4cnc5cnn(CC(F)F)c5n4)C3=O)C2)cc(C(F)(F)F)n1 (stereo not shown) [Cmpd 523] | < 10 |
| Cc1nc(N2CC3(CCN(c4cnc5cnn(CC(F)F)c5n4)C3=O)C2)cc(C(F)(F)F)n1 [Cmpd 524] | < 10 |
| Cc1nc(N2CC3(CC(=O)N(c4cnc5cnn(CC(F)F)c5n4)C3)C2)cc(C(F)(F)F)n1 [Cmpd 525] | < 10 |
| FC(F)Cn1ncc2ncc(N3CCC4(CC3)CN(c3cnc(C(F)(F)F)nc3)C4)nc21 [Cmpd 526] | < 10 |
| Cc1cc(N2CC3(CCN(c4cnc5cnn(CC(F)F)c5n4)CC3)C2)nc(C(F)(F)F)n1 [Cmpd 527] | < 10 |
| Cc1cc(N2CCC3(CCN(c4cnc5cnn(CC(F)F)c5n4)CC3)C2)nc(C(F)(F)F)n1 [Cmpd 528] | < 10 |
| Cc1cc(N2CC3(CCN(c4cnc5cnn(CC(F)F)c5n4)CC3)CC2=O)nc(C(F)(F)F)n1 [Cmpd 529] | < 10 |
| Cc1nn(CC(F)F)c2nc(N3CCC4(CCN(c5cnc(C(F)(F)F)nc5)C4)C3)cnc12 (stereo not shown) [Cmpd 530] | < 10 |
| FC(F)(F)Cn1ncc2ncc(N3CCC4(CCN(c5cnc(C(F)(F)F)nc5)C4)C3)nc21 (stereo not shown) [Cmpd 531] | < 10 |
| FC(F)(F)c1ncc(N2CCC3(CCN(c4cncc(-c5nncs5)n4)C3)C2)cn1 (stereo not shown) [Cmpd 532] | 10 to 50 |
| FC(F)(F)c1ncc(N2CCC3(CCN(c4cnc5cnn(C6COC6)c5n4)C3)C2)cn1 (stereo not shown) [Cmpd 533] | < 10 |
| Cc1nn(C2COC2)c2nc(N3CCC4(CCN(c5cnc(C(F)(F)F)nc5)C4)C3)cnc12 (stereo not shown) [Cmpd 534] | < 10 |
| FC(F)(F)c1ncc(N2CCC3(CCN(c4ncc5cnn(C6COC6)c5n4)C3)C2)cn1 (stereo not shown) [Cmpd 535] | < 10 |
| Cc1nn(C2COC2)c2nc(N3CCC4(CCN(c5cnc(C(F)(F)F)nc5)C4)C3)ncc12 (stereo not shown) [Cmpd 536] | < 10 |
| Cc1nc(N2CCC3(CCN(c4cnc5c(C)nn(CC(F)F)c5n4)C3)C2)cc(C(F)(F)F)n1 (stereo not shown) [Cmpd 537] | > 100 |
| Cc1nc(N2CCC3(CCN(c4cnc5cnn(CC(F)(F)F)c5n4)C3)C2)cc(C(F)(F)F)n1 (stereo not shown) [Cmpd 538] | 10 to 50 |
| Cc1nc(N2CCC3(CCN(c4cncc(-c5nncs5)n4)C3)C2)cc(C(F)(F)F)n1 (stereo not shown) [Cmpd 539] | 10 to 50 |
| Cc1nc(N2CCC3(CCN(c4ncc5cnn(CC(F)F)c5n4)C3)C2)cc(C(F)(F)F)n1 (stereo not shown) [Cmpd 540] | 10 to 50 |
| Cc1nc(N2CCC3(CCN(c4ncc5c(C)nn(CC(F)F)c5n4)C3)C2)cc(C(F)(F)F)n1 (stereo not shown) [Cmpd 541] | < 10 |
| Cc1nc(N2CCC3(CCN(c4cnc5cnn(C6COC6)c5n4)C3)C2)cc(C(F)(F)F)n1 (stereo not shown) [Cmpd 542] | < 10 |
| Cc1nc(N2CCC3(CCN(c4cnc5c(C)nn(C6COC6)c5n4)C3)C2)cc(C(F)(F)F)n1 (stereo not shown) [Cmpd 543] | 10 to 50 |
| Cc1nc(N2CCC3(CCN(c4ncc5c(C)nn(C6COC6)c5n4)C3)C2)cc(C(F)(F)F)n1 (stereo not shown) [Cmpd 544] | 10 to 50 |

| SMILES | EC50 [µM] |
| --- | --- |
| Cc1nc(N2CCC3(CCN(c4ncc5cnn(C6COC6)c5n4)C3)C2)cc(C(F)(F)F)n1 (stereo not shown) [Cmpd 545] | > 100 |
| FC(F)Cn1ncc2cnc(N3CCC4(CCN(c5cnc(C(F)(F)F)nc5)C4)C3)nc21 (stereo not shown) [Cmpd 546] | 10 to 50 |
| Cc1nn(CC(F)F)c2nc(N3CCC4(CCN(c5cnc(C(F)(F)F)nc5)C4)C3)ncc12 (stereo not shown) [Cmpd 547] | 10 to 50 |
| Cc1nc(N2CCC3(CCN(c4ncc5cnn(CC(F)(F)F)c5n4)C3)C2)cc(C(F)(F)F)n1 (stereo not shown) [Cmpd 548] | > 100 |
| Cc1nc(N2CCC3(CCN(c4cnc5c(C)nn(C6COC6)c5n4)CC3)C2)cc(C(F)(F)F)n1 [Cmpd 549] | > 100 |
| Cc1nc(N2CCC3(CCN(c4ncc5c(C)nn(C6COC6)c5n4)CC3)C2)cc(C(F)(F)F)n1 [Cmpd 550] | > 100 |
| Cc1nc(N2CCC3(C2)CN(c2cnc4cnn(CC(F)F)c4n2)C3)cc(C(F)(F)F)n1 [Cmpd 551] | < 10 |
| Cc1nc(N2CCC3(C2)CN(c2cnc4cnn(CC(F)(F)F)c4n2)C3)cc(C(F)(F)F)n1 [Cmpd 552] | < 10 |
| Cc1nc(N2CCC3(C2)CN(c2ncc4cnn(CC(F)F)c4n2)C3)cc(C(F)(F)F)n1 [Cmpd 553] | 10 to 50 |
| Cc1nc(N2CCC3(C2)CN(c2ncc4cnn(CC(F)(F)F)c4n2)C3)cc(C(F)(F)F)n1 [Cmpd 554] | 10 to 50 |
| Cc1nc(N2CCC3(C2)CN(c2cnc4cnn(C5COC5)c4n2)C3)cc(C(F)(F)F)n1 [Cmpd 555] | < 10 |
| Cc1nc(N2CCC3(C2)CN(c2cnc4c(C)nn(C5COC5)c4n2)C3)cc(C(F)(F)F)n1 [Cmpd 556] | 10 to 50 |
| Cc1nc(N2CCC3(C2)CN(c2ncc4cnn(C5COC5)c4n2)C3)cc(C(F)(F)F)n1 [Cmpd 557] | 10 to 50 |
| Cc1nc(N2CCC3(C2)CN(c2ncc4c(C)nn(C5COC5)c4n2)C3)cc(C(F)(F)F)n1 [Cmpd 558] | < 10 |
| CC(C)c1ncc(N2CC3(CCN(c4cnc5cnn(CC(F)F)c5n4)C3)C2)cn1 [Cmpd 559] | 10 to 50 |
| FC(F)Cn1ncc2ncc(N3CCC4(CN(c5cnc(C6CC6)nc5)C4)C3)nc21 [Cmpd 560] | 10 to 50 |
| Cc1ncc(N2CC3(CCN(c4cnc5cnn(CC(F)F)c5n4)CC3)C2)c(C(F)(F)F)n1 [Cmpd 561] | 10 to 50 |
| Cc1nc(N2CC3(CCN(c4ncc5cnn(C6COC6)c5n4)CC3)C2)cc(C(F)(F)F)n1 [Cmpd 562] | 10 to 50 |
| Cc1nc(N2CC3(CCN(c4cnc5cnn(C6COC6)c5n4)CC3)C2)cc(C(F)(F)F)n1 [Cmpd 563] | > 100 |
| Cc1nc(N2CC3(CCN(c4ncc5cnn(CC(F)F)c5n4)CC3)C2)cc(C(F)(F)F)n1 [Cmpd 564] | < 10 |
| Cc1nc(N2CC3(CCN(c4cnc5c(C)nn(C6COC6)c5n4)CC3)C2)cc(C(F)(F)F)n1 [Cmpd 565] | 10 to 50 |
| Cc1nc(N2CC3(CCN(c4ncc5cnn(CC(F)(F)F)c5n4)CC3)C2)cc(C(F)(F)F)n1 [Cmpd 566] | < 10 |
